Experimental findings from US8435947B2, “Endothelial nitric oxide synthase antagonists and uses thereof for inhibiting oxygen toxicity” (Medical College of Georgia Research Institute, Inc., priority 2010, dated 2013) are described below.

In assay [1] the test system is pulmonary artery endothelial cells. The assay is described as follows: superoxide formation in endothelial cells (CMH spin trap, EPR). It counts as cell-based, pigs. As to conditions: ETU 100 μm. The procedure:
To measure NO production, endothelial cells were incubated with ABS peptides for 3 h. Then ionomycin (2 μM) was added to the cells. After an additional 30 min, culture medium was collected and ethanol-precipitated to remove proteins. 50 μl of the reaction mix were loaded to the SIEVERS machine for NOx measurement as described above. For superoxide assay, after incubation with ABS peptides, the spin trap CMH was added to the cells. Superoxide from cells was trapped for 1 h, and then cells were scraped and subjected to EPR spectroscopy.

In assay [2] the test system is COS-7 cells. The assay is described as follows: superoxide formation in COS-7 cells transfected with wild type or mutant eNOS. Format: cell-based. As to conditions: ETU 100 μm or PEG-SOD. From the text: Human eNOS gene (GenBank™ M93718.1) was cloned into HindIII and XbaI sites of pcDNA3 vector and regarded as wild-type eNOS. […] The site-directed mutagenesis was custom-made by Retrogen (San Diego, Calif.). The sequences of both strands of the gene in the mutated region were verified by using ABI 3730 automated sequencer. Plasmids containing wild-type eNOS cDNA or eNOS mutant cDNA were transfected into COS-7 cells using Lipofectamine LTX with PLUS reagent (Invitrogen, Carlsbad, Calif.) according to the manufacturer's protocol. 48 h after transfection, cells were used for co-immunoprecipitation and assays for NO and superoxide generation.
After wild-type and eNOS mutant transfection, ionomycin (2 μm) was added to the cells. After 30 min of incubation, culture medium was collected and ethanol-precipitated to remove proteins. 50 μl of the reaction mix were loaded to the SIEVERS machine for NOx measurement according to standard manufacturer's instructions (Church, J. E., and Fulton, D. (2006) J. Biol. Chem. 281, 1477-88). In some experiments, N^G-nitro-1-arginine methyl ester (L-NAME), a specific eNOS inhibitor, was used to inhibit NO production. […] For superoxide assay, after incubation with ABS peptides, the spin trap CMH was added to the cells. […] Protein contents in the cell lysates were determined by Lowry's method.

For assay [3], the system named is PAEC. Kind of assay: superoxide radicals in hyperoxic PAEC (DHE fluorescence). It counts as cell-based, pigs. The settings on record: 95% oxygen 24 h, tiron 5 mM. The procedure:
After hyperoxic exposure, cells were loaded with 10 μM dihydroethidine (DHE) for 30 min. […] The excitation and emission wavelengths were 510 nm and 590 nm.

Assay [4] has as its system pulmonary artery endothelial cells. The assay is described as follows: endothelial monolayer wound repair. The settings on record: PEG-SOD 100 units/ml, NOC-18 10 μm. Format: cell-based, pigs. The protocol:
Pulmonary artery endothelial cells were incubated with ABS peptides for 3 h. Then endothelial monolayer wound repair in the absence and presence of PEG-SOD (100 units/ml) and NOC-18 (10 μm) was measured as previously reported (Su, Y., et al. (2006) FASEB J. 20, 1443-51). Endothelial monolayer wound repair distance was expressed as the width of the wound before treatment subtracted by that after treatment.

Assay [5] deals with PAEC. As to conditions: peptide 20 μM, 95% oxygen 24 h. The protocol: (§1) Third- to sixth-passage cells in monolayer culture were maintained in RPMI 1640 medium containing 4% fetal bovine serum and antibiotics (10 units/ml penicillin, 100 μg/ml streptomycin, 20 μg/ml gentamicin, and 2 μg/ml Fungizone) and were used 2 or 3 days after confluence.
Assay [6] deals with purified eNOS. The assay is described as follows: L-citrulline assay with purified eNOS. It counts as biochemical, human. The settings on record: peptide 20 μm; for β-actin-induced increase in L-citrulline production: β-actin 2.0 μm. The procedure: (§2) Wild-type and mutant eNOS proteins in COS-7 cells were purified. The catalytic activity of purified eNOS mutant protein was assayed by the measurement ofl-[^3H]citrulline formation from 1-[^3H]arginine as reported previously (Su, Y., et al. (2003) Am. J. Physiol. Cell Physiol. 284, C1542-49). To determine NADPH consumption by eNOS, 0.3 mm NADPH was added to 200 μl of reaction mix containing 1 μg eNOS, 1 μM FAD, 1 μmM FMN, 10 μg/ml calmodulin, 100 μMm L-arginine, 1 mM CaCl2, 10 μg/ml calmodulin, and 2.5 mM ATP. The reaction was monitored at […] for 10 min. NADPH consumption was calculated by using a molar extinction coefficient 6.22 mm^−·cm^−1. The superoxide formation from purified eNOS mutant was measured by spin trapping and EPR spectroscopy.

Assay [7] deals with purified eNOS. Kind of assay: NO (NOx) production by purified eNOS in vitro. It counts as biochemical, human. The settings on record: peptide 20 μm; for β-actin-induced increase in NO production: β-actin 2.0 μm. The protocol: NO production was determined by measuring NOx (NO2 and NO3). Purified eNOS and β-actin were preincubated at room temperature for 30 min and then added to a 50-μl reaction mix containing 50 mM HEPES buffer, 1 mM NADPH, 100 μmM Larginine, 1 mmM CaCl2, 10 μg/ml calmodulin, 4 μM BH4. The mixture was incubated at 37° C. for 30 min. 40 μl of the reaction mix were loaded to the SIEVERS machine for NOx measurement according to standard manufacturer's instructions as previously described (Church, J. E., and Fulton, D. (2006) J. Biol. Chem. 281, 1477-88). For experiments with ABS peptides, β-actin and peptides were preincubated at room temperature for 20 min before eNOS protein was added.

Assay [8] relates to purified eNOS. Kind of assay: superoxide generation by purified eNOS, spin-trapping EPR spectroscopy. As to conditions: peptide 20 μm; for β-actin-induced decrease in superoxide formation: β-actin 2.0 μm. It counts as biochemical, human. The protocol: eNOS-derived superoxide generation was measured by electron paramagnetic resonance (EPR) spectroscopy and spin trapping as previously described (Sud, N., et al. (2008) Am. J. Physiol. Cell Physiol. 294, C1407-18). 50 μl of reaction mix containing 50 mM HEPES buffer, 1 mM NADPH, 100 μM Larginine, 1 mM CaCl2, 10 μg/ml calmodulin, and 1 μg of purified eNOS were incubated at 37° C. for 60 min. 12.5 μl of spin probe N1-hydroxy-3-methoxy-carbonyl-2,2,5,5-tetramethyl-pyrrolidine (CMH) in EPR buffer were added to the reaction mix. 35 μl of the final reaction mix were loaded into a 50-μl capillary tube and analyzed with a MiniScopeMS200 EPR (Magnetech, Berlin, Germany). A reaction curve was generated by adding 1 unit/ml of xanthine oxidase into 500 μM xanthine solution in buffered PBS (pH 7.4), which contains 5 μM diethyldithiocarbamate and 25 μMm desferrioxamine to inhibit any conversion of superoxide into either hydrogen peroxide or hydroxyl radical via Fenton reaction. Reactions were allowed to proceed at 25° C. for up to 40 min. Following incubation, ˜35 μl of each reaction mixture was loaded into a 50 μl capillary tube and analyzed immediately with EPR spectroscopy. EPR spectra were analyzed for amplitude using […] software (version 2.02, Magnettech). Given that 1 unit of xanthine oxidase will convert 1 μmol of xanthine per minute at 25° C., based on this standard curve, it was calculated that 1 EPR amplitude units is equivalent of 0.35 pmol of superoxide.

In assay [9] the test system is purified eNOS. Kind of assay: NADPH consumption assay with purified eNOS. It counts as biochemical, human. As to conditions: peptide 20 μm, β-actin 2.0 μm, absence of BH4. The protocol: as §2
Assay [10] deals with pulmonary artery endothelial cells. Kind of assay: NO production in endothelial cells (NOx, SIEVERS). It counts as cell-based, pigs. The protocol:
After wild-type and eNOS mutant transfection, ionomycin (2 μm) was added to the cells. After 30 min of incubation, culture medium was collected and ethanol-precipitated to remove proteins. 50 μl of the reaction mix were loaded to the SIEVERS machine for NOx measurement according to standard manufacturer's instructions (Church, J. E., and Fulton, D. (2006) J. Biol. Chem. 281, 1477-88). In some experiments, N^G-nitro-1-arginine methyl ester (L-NAME), a specific eNOS inhibitor, was used to inhibit NO production. […] For superoxide assay, after incubation with ABS peptides, the spin trap CMH was added to the cells. Superoxide from cells was trapped for 1 h, and then cells were scraped and subjected to EPR spectroscopy as previously described (Sud, N., et al. (2008) Am. J. Physiol. Cell Physiol. 294, C1407-18). Protein contents in the cell lysates were determined by Lowry's method.
To measure NO production, endothelial cells were incubated with ABS peptides for 3 h. Then ionomycin (2 μM) was added to the cells. After an additional 30 min, culture medium was collected and ethanol-precipitated to remove proteins. 50 μl of the reaction mix were loaded to the SIEVERS machine for NOx measurement as described above. For superoxide assay, after incubation with ABS peptides, the spin trap CMH was added to the cells. […]

For assay [11], the system named is PAEC. The assay is described as follows: peroxynitrite formation in hyperoxic PAEC (APF fluorescence). Format: cell-based, pigs. The settings on record: 95% oxygen 24 h, uric acid 100 μM. The procedure:
as §1
To reduce β-actin availability to eNOS, the β-actin mRNA was silenced using its siRNA as previously reported by us (Kondrikov, D., et al. (2006) Am. J. Physiol. Lung Cell Mol. Physiol. 290, L41-L50).

The target in assay [12] is T1, F-actin (polymerized human β-actin) (Homo sapiens, UniProt P60709).
T1 construct: purchased Cytoskeleton, Inc. (Denver, Co)
The assay is described as follows: F-actin binding spin-down assay. The settings on record: peptide 10 μM, 23 μM F-actin, 30 min, 150,000×g 2 h. The procedure: The binding capacities of the peptides to β-actin were measured by using an F-actin binding spin-down assay kit from Cytoskeleton, Inc. (Denver, Co). Monomeric human β-actin was polymerized into F-actin in F-actin buffer (5 mM Tris-HCl, pH 7.8, 1 mM ATP, 0.5 mM DTT, 0.2 mmM CaCl2, 0.2 mM MgCl2, and 100 mM KCl) for 1 h at 24° C. ABS peptides at final concentrations of 10 μM were incubated alone or with 23 μM F-actin in F-actin buffer for 30 min in a total volume of 50 μl. The mixtures were centrifuged at 150,000×g for 2 h at 24° C. in a Beckman TLA-100 rotor. Supernatant and pellet fractions were resuspended in loading buffer and subjected to SDS-PAGE. The gel was stained with Coomassie Blue. The density of the band was measured using Software Image J.
Actin binding capabilities of the synthesized ABS peptides corresponding to putative ABSs in eNOS were evaluated by the F-actin binding spin-down assay. ABS peptides 326 (P326), control peptides, ABS peptides 492 (P492), and ABS peptides 245 (P245) at final concentrations of 10 μm were incubated for 30 min alone or with 23 μm F-actin in F-actin buffer containing 2.5 μM ATP and 2.5 μM DTT. After high speed centrifugation at 150,000×g for 2 h, the supernatants and pellets were subjected to SDS-PAGE analysis.

For the compound `CCSC(=N)N` [ETU, 2-ethyl-2-thiopseudourea, reference compound], in assay [1], the “P326TAT-induced increase in superoxide formation” value is “inhibited P326TAT-induced increase in superoxide formation”. Moreover, the “superoxide generated from COS-7 cells, wild type versus eNOS mutant, in the presence of the agent” value in assay [2] was “the amounts of superoxide generated from COS-7 cells containing wild type and eNOS mutant were comparable”.
As to `O=S(=O)(O)c1cc(O)c(O)c(S(=O)(=O)O)c1` [tiron], the “increase in DHE fluorescence intensity (superoxide radical) in hyperoxic PAEC” value in assay [3] is “prevented the increase in the fluorescence intensity in hyperoxic PAEC”.
As for `NCCN(CCN)/[N+]([O-])=N/O` [NOC-18, reference compound], the “P326TAT-induced decrease in monolayer wound repair” value in [4] was “prevented P326TAT-induced decrease in monolayer wound repair”.
In the case of “RKKRRQRRRAAGARAYAA [control peptide TAT, reference compound]”, the “tyrosine nitration of proteins at 250, 100, 75, and 60 kDa, hyperoxia versus normoxia” value in assay [5] is “hyperoxia induced the increases in tyrosine nitration of proteins”.
Take LGLRWYAL [ABS peptide 326]: the “L-citrulline production from eNOS, peptide per se” value in assay [6] (without β-actin) was “did not affect NO and L-citrulline production and superoxide formation”. Also, the “β-actin-induced increase in L-citrulline production” value in [6] is “prevented β-actin-induced increase in NO and L-citrulline production”. The “NO production from eNOS, peptide per se” value in [7] (without β-actin) is “did not affect NO and L-citrulline production and superoxide formation”. Moreover, in assay [7], the “β-actin-induced increase in NO production” value was “prevented β-actin-induced increase in NO and L-citrulline production”. Further, the “superoxide formation from eNOS, peptide per se” value in assay [8] (without β-actin) is “did not affect NO and L-citrulline production and superoxide formation”. Moreover, in [8], the “β-actin-induced decrease in superoxide formation” value is on record as “prevented”. In assay [9], the “β-actin-induced decrease in NADPH consumption” value is given as “prevented β-actin-induced decrease in NADPH consumption”.
As to `COC(=O)[C@@H](N)CCCNC(=N)N[N+](=O)[O-]` [L-NAME, N^G-nitro-1-arginine methyl ester, reference compound], in assay [10], the “inhibition of NO production” value is recorded as 90%.
For the compound `O=c1[nH]c(=O)c2[nH]c(=O)[nH]c2[nH]1` [uric acid, reference compound], the “hyperoxia-induced increase in APF fluorescence intensity (peroxynitrite)” value in assay [11] is “prevented hyperoxia-induced increase in the fluorescence intensity”.
On to “AGARAYAA [control peptide for peptide 326, reference compound]”, for which the “β-actin-induced increase in L-citrulline production” value in assay [6] is “did not affect β-actin-induced changes in the production of NO, L-citrulline, and superoxide from eNOS”. Besides, in assay [7], the “β-actin-induced increase in NO production” value was “did not affect β-actin-induced changes in the production of NO, L-citrulline, and superoxide from eNOS”. The “β-actin-induced decrease in superoxide formation” value in [8] is “did not affect β-actin-induced changes in the production of NO, L-citrulline, and superoxide from eNOS”.
Take “NSQLVRYAGYRQQDGSVRGDPANVEITEL [ABS peptide 245]”: the “peptide pulled down to the pellets with F-actin” value in assay [12] was “not pulled down to the pellets with F-actin”.
